We go through seven molecules from PMC4330362, “The ATP-mediated formation of the YgjD–YeaZ–YjeE complex is required for the biosynthesis of tRNA t^6A in Escherichia coli” (Nucleic Acids Research, 2015).

The target in series [1] is T1, YgjD–YeaZ (Escherichia coli, UniProt P05852+P76256).
T1 construct: gene tsaD; 1:1 heterodimer of full-length YgjD (337 residues) and YeaZ (231 residues), each C-terminally 6xHis tagged, expressed in E. coli BL21(DE3); nucleotide sites in the YgjD active site and at the YgjD-YeaZ interface
Briefly: crystal structure […] A. In kind it is binding. To be noted: cocrystallised with ATP and MgCl2; two ADP: YgjD active site (Mg2+, Fe) and YgjD-YeaZ interface; no heat signal by ITC. A general note: In ITC the heat of successive injections is recorded.

Series [2] concerns the target T2, YjeE (Escherichia coli, UniProt P0AF67).
T2 construct: gene tsaE; full length, C-terminal Strep II tag, expressed in E. coli BL21(DE3) from pET28a; monomer-dimer equilibrium
As to the kind of experiment: ITC. The class given is binding.

In series [3] the target is T3, YjeE (Escherichia coli, UniProt P0AF67, W109A).
T3 construct: gene tsaE; full length, C-terminal Strep II tag, expressed in E. coli BL21(DE3) from pET28a; monomer-dimer equilibrium
As to the kind of experiment: ITC. The class given is binding.

The target in series [4] is T1, YgjD–YeaZ. Briefly: ITC. The class given is binding.
The target in a further series is T4, YgjD (Escherichia coli, UniProt P05852).
T4 construct: gene tsaD; full length (337 residues), C-terminal 6xHis tag, expressed in E. coli BL21(DE3) from pET9a; homodimer in solution
Briefly: ITC. The class given is binding.

Series [5] has as its target T5, YgjD–YeaZ (Escherichia coli, UniProt P05852+P76256, P05852:V85E).
T5 construct: gene tsaD; 1:1 heterodimer of full-length YgjD (337 residues) and YeaZ (231 residues), each C-terminally 6xHis tagged, expressed in E. coli BL21(DE3); nucleotide sites in the YgjD active site and at the YgjD-YeaZ interface
As to the kind of experiment: crystal structure. The class given is binding. To be noted: crystallised in presence of ATP; no nucleotide at the interface.

For series [6], the target named is T6, YjeE (Escherichia coli, UniProt P0AF67, Y82A).
T6 construct: gene tsaE; full length, C-terminal Strep II tag, expressed in E. coli BL21(DE3) from pET28a; monomer-dimer equilibrium
As to the kind of experiment: ITC. The class given is binding.

The target in series [7] is YeaZ (Salmonella typhimurium) (UniProt Q7CQE0). Conditions: cited from earlier work.
Series [8] relates to Nc1ncnc2c1ncn2[C@@H]1O[C@H](COP(=O)(O)OP(=O)(O)OP(=O)(O)O)[C@@H](O)[C@H]1O. Briefly: purified protein. Conditions: 50 mM HEPES pH 7.5, 20 °C, YjeE at 2 molar equivalents.
Series [9] concerns the molecule itself. As to the kind of experiment: SEC; HiLoad 16/60 Superdex 75 pg; single proteins and equimolar mixture.

As for `Nc1ncnc2c1ncn2[C@@H]1O[C@H](COP(=O)(O)OP(=O)(O)O)[C@@H](O)[C@H]1O` [ADP], on YgjD–YeaZ [1], the “crystal structure 2.3 A” value is on record as “An ADP molecule could unequivocally fit the density”. The Kd – broadly, the equilibrium constant for the complex coming apart – on YjeE [2] turned out to be 6.54 ± 0.053 µM; on YjeE [3], 4.83 ± 0.022 µM.

For the molecule `Nc1ncnc2c1ncn2[C@@H]1O[C@H](COP(=O)(O)CP(=O)(O)OP(=O)(O)O)[C@@H](O)[C@H]1O` [AMPCPP], the Kd at YgjD–YeaZ [4] is 0.7 ± 0.011 µM; at YgjD, 1.62 ± 0.088 µM.

On to `Nc1ncnc2c1ncn2[C@@H]1O[C@H](COP(=O)(O)OP(=O)(O)OP(=O)(O)O)[C@@H](O)[C@H]1O` [ATP], for which the crystal structure result at YgjD–YeaZ [5] is reported as “YgjD^V85E(ATP)–YeaZ crystal structures under accession number”.

With `Nc1ncnc2c1ncn2[C@@H]1O[C@H](CO[P@](=O)(O)O[P@](=O)(O)O[P@@](=O)(O)S)[C@@H](O)[C@H]1O` [ATPγS], the Kd on YjeE [2] stood at 20.4 ± 1.32 µM; on YjeE [6], 8.9 ± 0.013 µM.

On to YgjD (from UniProt P40731), for which, in series [7], the Kd was 0.3 µM.

Consider “YgjD–YeaZ–2xYjeE complex (Escherichia coli K-12)”, for which, in series [8], the Km (as a rule, the substrate concentration at which the rate is half of its maximum) came to 644 µM; the kcat (usually the number of substrate molecules converted per active site and unit of time at saturation) was 0.4 s⁻¹.

B1: YgjD (TsaD) (enzyme, Escherichia coli K-12, UniProt P05852 1-337, looked up)
chain: MRVLGIETSCDETGIAIYDDEKGLLANQLYSQVKLHADYGGVVPELASRDHVRKTVPLIQAALKESGLTAKDIDAVAYTAGPGLVGALLVGATVGRSLAFAWDVPAIPVHHMEGHLLAPMLEDNPPEFPFVALLVSGGHTQLISVTGIGQYELLGESIDDAAGEAFDKTAKLLGLDYPGGPLLSKMAAQGTAGRFVFPRPMTDRPGLDFSFSGLKTFAANTIRDNGTDDQTRADIARAFEDAVVDTLMIKCKRALDQTGFKRLVMAGGVSANRTLRAKLAEMMKKRRGEVFYARPEFCTDNGAMIAYAGMVRFKAGATADLGVSVRPRWPLAELPAA
notes: YgjD (TsaD), Escherichia coli K-12, 337 residues; gene amplified from genomic DNA, cloned in pET9a; Alone it is a homodimer by gel filtration and SAXS; also called Ec–YgjD; source: E. coli BL21(DE3), purified (details in the Supplementary Materials)
As for B1, the stoichiometry N (in general, the number of molecules, sites or subunits per partner or assembly) in [9] was determined as 2.
